Measurements published in patent US9181260B2, “Crystalline form of sitagliptin sulfate” (MOEHS IBERICA S.L., priority 2012, dated 2015).
Structures can show the parent of a compound that is named as a salt. Where two headings read alike, the source gives them in different places.

Columns and labels:
Assay type in all cases: physicochemical
[1] = Crystalline form after grinding
Method: 100.0 g (245.5 mmoles) of sitagliptin base were dissolved at 20-22° C. in a mixture of 750 ml of absolute ethanol and 120 ml of water. A previously prepared solution of 98.1% H2SO4 ([…], 240.9 mmoles) in ethanol (760 ml) was slowly added to said solution, maintaining the temperature between 20-25° C. When approximately ⅔ of the total volume of the acid solution had been added, the addition was stopped and 1.0 g (1.978 mmoles) of crystalline form M of sitagliptin sulfate obtained by means of any of the processes described in Examples 1 and 3-5 was added to the reaction mixture. The presence of a white precipitate that remains undissolved was immediately noticed. The addition of the acid solution was continued and once this ended, the mixture obtained was maintained at a temperature of 20-25° C. for 4 hours. The solid obtained was filtered and washed in the filter with absolute ethanol (2×100 ml). The wet product was dried in a vacuum oven at 40° C. for 22 hours to yield 97.1 g (192.1 mmoles) of a white crystalline solid (77.6%). XRPDs both of the wet product (FIG. 3) and of the dry product (FIG. 2) which correspond with form M of sitagliptin sulfate were performed. […] (FIG. 8). The water content determined by TGA (FIG. 13) is 0.02%.

[2] = Hygroscopicity study, European Pharmacopeia Ed. 6.0 Section 5.11 (degree of hydration at 80% and 97% RH, 25° C.); conditions: for Higroscopicity RH 80% / Higroscopicity RH 97%: water content by weight difference
Method: International application WO 2009/085990 A2 describes the production of an anhydrous crystalline form of sitagliptin sulfate salt and its characterization by means of DSC (Differential Scanning calorimetry), TGA (Thermal Gravimetric Analysis) and XRPD (X-Ray Powder Diffraction). However and in the hands of the inventors of the present application, said crystalline form is hygroscopic under the conditions of the European Pharmacopeia Ed. 6.0 Section 5.11 (24 hours at 80% RH and 25° C.), readily reaching a water proportion corresponding to a dihydrate form. […] A stability study of the M form of sitagliptin sulfate was performed under conditions of the European Pharmacopeia Ed. 6.0 Section 5.11, i.e., the degree of hydration was measured at 80% relative humidity (RH) at a temperature of 25° C. Additionally, the degree of hydration was also measured at 97% relative humidity (RH) at a temperature of 25° C. The results are shown in Table 1, wherein the higroscopicity (expressed as the water content by means of weight difference, following the procedure described in European Pharmacopeia Ed. 6.0 Section 5.11) of samples of 1 g of sitagliptin sulfate polymorph M of the present invention after storage at 1 day, 3 days, 7 days, 14 days and 21 days at 80% RH and 97% RH, respectively. […] 6.0 Section 5.11, i.e., the degree of hydration is less than 0.2%. The crystalline form of sitagliptin sulfate after 21 days at a relative humidity of 80% and 97%, respectively, were analyzed by means of X-ray diffraction.

[3] = Accelerated stability study (40° C.±2° C., 75%±5% RH), water content by Karl-Fisher and XRPD; conditions: for Water content: Karl-Fisher
Method: Water Content (Karl-Fisher Method) The analysis is performed in a Mettler Toledo W30. It is determined in 0.2 g of sample using Hydranal medium K as solvent and Hydranal composite 5K as titrant. Accelerated stability study of the M form of sitagliptin sulfate was performed under the following conditions: temperature of 40° C.±2° C. and relative humidity (RH) of 75%±5%. The water content of the sample was determined at the beginning of the study, at 3 months and at 6 months, by means of Karl-Fisher. The crystalline form of sitagliptin sulfate after 6 months was analyzed by means of X-ray diffraction.

[4] = Water content determined by thermal gravimetric analysis (TGA)
Method: TGA analyses were performed using a Mettler/Toledo TGA/SDTA851e thermobalance. Parameters: heating range from 30 to 300° C. with a 10° C./min ramp and a 50 ml/min dry N2 flow.

[5] = 80% RH and 97% RH, 25° C., up to 21 days

N[C@@H](CC(=O)N1CCn2c(nnc2C(F)(F)F)C1)Cc1cc(F)c(F)cc1F [form M, addition salt of sitagliptin with sulfuric acid (1:1)]
crystalline form of the ground product [1]: still the crystalline form of sitagliptin sulfate object of the present invention
Higroscopicity RH 80% ([2]; 25° C., 80% RH, 1 day): 0.07%
Higroscopicity RH 80% ([2]; 25° C., 80% RH, 3 days): 0.10%
Higroscopicity RH 80% ([2]; 25° C., 80% RH, 7 days): 0.12%
Higroscopicity RH 80% ([2]; 25° C., 80% RH, 14 days): 0.10%
Higroscopicity RH 80% ([2]; 25° C., 80% RH, 21 days): 0.07%
Higroscopicity RH 97% ([2]; 25° C., 97% RH, 1 day): 0.05%
Higroscopicity RH 97% ([2]; 25° C., 97% RH, 3 days): 0.08%
Higroscopicity RH 97% ([2]; 25° C., 97% RH, 7 days): 0.06%
Higroscopicity RH 97% ([2]; 25° C., 97% RH, 14 days): 0.06%
Higroscopicity RH 97% ([2]; 25° C., 97% RH, 21 days): 0.07%
degree of hydration [2, 5]: less than 0.2%
hygroscopicity (in words) [2, 5]: non-hygroscopic
degree of hydration ([2]; 80% relative humidity, 25° C.): less than 0.2%
hygroscopicity (in words) ([2]; 80% relative humidity, 25° C., Ph. Eur. 6.0 Section 5.11): non-hygroscopic
crystalline form by XRPD after storage ([2]; 21 days, 25° C., 80% RH): corresponding to form M of sitagliptin sulfate
crystalline form by XRPD after storage ([2]; 21 days, 25° C., 97% RH): corresponding to form M of sitagliptin sulfate
Water content ([3]; 3 months at 40° C.±2° C., 75%±5% RH): 0.09%
Water content ([3]; 6 months at 40° C.±2° C., 75%±5% RH): 0.01%
crystalline form by XRPD after storage ([3]; 6 months, 40° C.±2° C., 75%±5% RH): corresponding to form M of sitagliptin sulfate
Water content ([3]; Initial): 0.09%
water content determined by TGA [4]: less than 0.05%
water content determined by TGA ([4]; listed as Example 1): 0.02%
water content determined by TGA ([4]; listed as Example 2): 0.02%
water content determined by TGA ([4]; listed as Example 3): 0.03%
water content determined by TGA ([4]; listed as Example 4): 0.01%
water content determined by TGA ([4]; listed as Example 5): 0.004%

N[C@@H](CC(=O)N1CCn2c(nnc2C(F)(F)F)C1)Cc1cc(F)c(F)cc1F.O=S(=O)(O)O [reference compound]
hygroscopicity (in words) ([2]; 24 hours at 80% RH and 25° C., in the hands of the inventors): hygroscopic
